Source: patent US20190111059A1, “COMPOSITIONS AND METHODS FOR TREATING AUTISM SPECTRUM DISORDER” (Marinus Pharmaceuticals, Inc., priority 2017, published 2019)
Where a name gives a salt, the structure may show the parent alone.

Assays:
[1] = test system: children with non-syndromic autism spectrum disorder (ASD) and language impairment; experiment: Randomized placebo-controlled trial: Behavioral Assessment System for Children (BASC); type: in vivo, human; conditions: for BASC Internalizing problems, estimated effect: calcium salt
Procedure: The Behavioral Assessment System for Children 2nd Edition (“BASC”) ranges from 185 to 306 items and is validated in ASD. Each item is rated 0 to 3 with higher scores indicating greater severity. Standardized T-Scores (mean 50, standard deviation 10) range 20-120 for externalizing, internalizing and behavioral symptoms and 10-90 for adaptive skills. This two-arm double-blind randomized placebo-controlled parallel study with a 1:1 allocation was performed at Arkansas Children's Research Institute (Little Rock, Ark., USA) from 4 Jun. 2012 to 22 Nov. 2013. Parent and teacher questionnaires were requested at baseline and 6 and 12 weeks after starting treatment. Parents were asked to deliver baseline questionnaires to teachers or therapists. After the first visit, questionnaires were mailed to the parents and teachers at least 1 week prior to the target date of completion. Parents were asked to bring the completed teacher and parent 12-week questionnaires to the final assessment. Other questionnaires were returned in a preaddressed postage-paid envelope. The target dose of the intervention (INN: DL folinic acid calcium salt; USAN: leucovorin calcium) was 2 mg kg^−1 per day (maximum 50 mg per day) in two equally divided doses with half of the target dose given during the first 2 weeks. Dye-free, milk-product-free, vegetarian capsules were provided in three strengths (5, 10 and 25 mg) by Lee Silsby Compounding Pharmacy (Cleveland Heights, Ohio, USA). Certificate of analysis was provided for each capsule strength by an independent analytical service (Eagle Analytical Services, Houston, Tex., USA) for each batch of capsules produced. In all cases, potency was at least 99%. Secondary outcomes. Secondary outcome measures included the Ohio Autism Clinical Impression Scale (OACIS), Vineland Adaptive Behavior Scale 2nd Edition (VABS) Survey Interview Form and several questionnaires. Parents and teachers were asked to complete the Aberrant Behavior Checklist (ABC), Social Responsiveness Scale (SRS) and Behavioral Assessment System for Children 2nd Edition (BASC). Only parents were asked to complete the Autism Impact Measure (AIM) and Autism Symptoms Questionnaire (ASQ). Secondary outcome measures were analyzed using the mixed-model regression. Because of the large number of secondary outcomes, correction for multiple comparisons was conducted using the false discovery rate.

[2] = test system: children with non-syndromic autism spectrum disorder (ASD) and language impairment; experiment: Randomized placebo-controlled trial: Autism Symptoms Questionnaire (ASQ); type: in vivo, human; conditions: lower = less autism symptoms; for ASQ Stereotypic behavior, estimated effect / ASQ Total score, estimated effect: calcium salt
Procedure: The Autism Symptoms Questionnaire (“ASQ) is a 34-item checklist (The Center for Autism and Related Disorders) that assesses social interaction (12 items, range 0-4), stereotyped behavior (7 items, range 0-4), communication symptoms (15 items, range 0-5) and total symptoms (34 items, […]). […] This two-arm double-blind randomized placebo-controlled parallel study with a 1:1 allocation was performed at Arkansas Children's Research Institute (Little Rock, Ark., USA) from 4 Jun. 2012 to 22 Nov. 2013. Parent and teacher questionnaires were requested at baseline and 6 and 12 weeks after starting treatment. Parents were asked to deliver baseline questionnaires to teachers or therapists. After the first visit, questionnaires were mailed to the parents and teachers at least 1 week prior to the target date of completion. Parents were asked to bring the completed teacher and parent 12-week questionnaires to the final assessment. Other questionnaires were returned in a preaddressed postage-paid envelope. The target dose of the intervention (INN: DL folinic acid calcium salt; USAN: leucovorin calcium) was 2 mg kg^−1 per day (maximum 50 mg per day) in two equally divided doses with half of the target dose given during the first 2 weeks. Dye-free, milk-product-free, vegetarian capsules were provided in three strengths (5, 10 and 25 mg) by Lee Silsby Compounding Pharmacy (Cleveland Heights, Ohio, USA). Certificate of analysis was provided for each capsule strength by an independent analytical service (Eagle Analytical Services, Houston, Tex., USA) for each batch of capsules produced. In all cases, potency was at least 99%. Secondary outcomes. Secondary outcome measures included the Ohio Autism Clinical Impression Scale (OACIS), Vineland Adaptive Behavior Scale 2nd Edition (VABS) Survey Interview Form and several questionnaires. Parents and teachers were asked to complete the Aberrant Behavior Checklist (ABC), Social Responsiveness Scale (SRS) and Behavioral Assessment System for Children 2nd Edition (BASC). Only parents were asked to complete the Autism Impact Measure (AIM) and Autism Symptoms Questionnaire (ASQ). Secondary outcome measures were analyzed using the mixed-model regression. Because of the large number of secondary outcomes, correction for multiple comparisons was conducted using the false discovery rate.

[3] = vs placebo, mixed-model regression, lower = better
[4] = vs placebo, mixed-model regression
[5] = vs placebo, mixed-model regression, listed as folinic acid

Structure (SMILES): Nc1nc2c(c(=O)[nH]1)N(C=O)C(CNc1ccc(C(=O)N[C@@H](CCC(=O)O)C(=O)O)cc1)CN2 (mixture of isomers) [Folinic acid, DL folinic acid calcium salt]
- BASC Adaptive skills, 12-week assessment mean ([1]; 2 mg kg^−1 per day, 12 weeks, baseline 24.5, higher = better): 27.8 T-Scores
- BASC Internalizing problems, 12-week assessment mean ([1]; 2 mg kg^−1 per day, 12 weeks, baseline 49.3, lower = better): 43.1 T-Scores
- BASC Externalizing problems, 12-week assessment mean ([1]; 2 mg kg^−1 per day, 12 weeks, baseline 60.9, lower = better): 57.7 T-Scores
- BASC Behavior problems, 12-week assessment mean ([1]; 2 mg kg^−1 per day, 12 weeks, baseline 71.1, lower = better): 65.3 T-Scores
- BASC Adaptive skills, estimated effect ([1]; vs placebo, mixed-model regression, higher = better): 0.4 T-Scores
- BASC Behavior problems, estimated effect [1, 3]: 0.1 T-Scores
- BASC Externalizing problems, estimated effect [1, 3]: −0.1 T-Scores
- BASC Internalizing problems, estimated effect [1, 3]: −1.1 T-Scores
- BASC Internalizing problems, estimated effect ([1]; vs placebo, mixed-model regression, lower = better, listed as folinic acid): significantly improved
- ASQ Stereotypic behavior, 12-week assessment mean ([2]; 2 mg kg^−1 per day, 12 weeks, baseline 3.1): 3.2 Raw Score
- ASQ Social, 12-week assessment mean ([2]; 2 mg kg^−1 per day, 12 weeks, baseline 3.5): 3.3 Raw Score
- ASQ Communication, 12-week assessment mean ([2]; 2 mg kg^−1 per day, 12 weeks, baseline 4.7): 4.7 Raw Score
- ASQ Total score, 12-week assessment mean ([2]; 2 mg kg^−1 per day, 12 weeks, baseline 11.3): 11.2 Raw Score
- ASQ Communication, estimated effect [2, 4]: 0.0 Raw Score
- ASQ Social, estimated effect [2, 4]: −0.1 Raw Score
- ASQ Stereotypic behavior, estimated effect [2, 4]: −0.2 Raw Score
- ASQ Total score, estimated effect [2, 4]: −0.3 Raw Score
- ASQ Stereotypic behavior, estimated effect [2, 5]: significantly improved
- ASQ Total score, estimated effect [2, 5]: significantly improved
